Usually melting point stands for the temperature, or range, at which the solid turns liquid.

For 85 compounds, melting point results are on record in a melting point compilation (Tetko et al.; mined from patent text by program, amines drawn as free bases though some values may be those of a salt).

Structures are written as SMILES. Residues, ends and D or L forms follow the SMILES beside them. *: point of attachment. Cbz = O=C(OCc1ccccc1)*; Boc = CC(C)(C)OC(=O)* Bounds are passed on as bounds.

As to `O=C(O)c1cnc2n(c1=O)CCCC2=NNc1ccccc1`, the melting point is 267 to 268 °C.

As to `O=C1CC2(c3ccccc3)CCCC=C2C(=O)N1CC1CCCCC1` (stereo not given), the melting point is 111 to 113 °C.

Take `Nc1nc(-n2cc(C(=O)O)c(=O)c3cc(F)c(F)c(Cl)c32)ncc1F`: the melting point fell in the range of 242 to 246 °C.

Compound `CC(C)NC(=O)OCC1CSC2=C(O1)c1ccccc1C(=O)C2=O` (stereo not given) yielded a melting point of 218 to 220 °C.

`COc1cccc(OCCCc2cn(-c3ccc(C(F)(F)F)cn3)nc2C(C)C)c1CC(=O)O` gave a melting point of 183 to 184 °C.

As to `CC[C@H](C)[C@H](O)C(=O)N1CCC(Oc2cc3ncnc(Nc4cccc(Cl)c4F)c3cc2OC)CC1`, the melting point fell in the range of 114 to 118 °C.

The compound `Cc1nnc(OC(=O)N2CCN(C)CC2)n1-c1ccc(Cl)cn1` gave a melting point of 214 to 216 °C.

`Nn1cnc2c(Br)csc2c1=O` registered a melting point of 181 to 183 °C.

`COc1cc(OC)c2c(=O)[nH]c(-c3ccc4[nH]c(CCN5CCCC5)cc4c3)nc2c1` had a melting point of 215 to 217 °C.

`COC(=O)c1cccc2c1c1c(n2Cc2ccccc2)CN(Cc2ccccc2)CC1=O` displayed a melting point of 198 to 199 °C.

Turning to `CC(C(=O)N1CCOCC1)N1CCN(c2ccccc2)CC1` (stereo not given), the melting point lay within 105 to 107 °C.

Compound `Nc1cnc2ccc(Cl)cc2n1` came in with a melting point of 219 to 222 °C.

`CC1(C)C(=O)N(CCO)C(=O)N1CN1C(=O)N(CCO)C(=O)C1(C)C`: the melting point was in the range of 165 to 166 °C.

For the compound `COC(=O)[C@H](Cc1c[nH]cn1)NC(=O)[C@H](Cc1ccccc1)NC(=O)[C@H](Cc1ccccc1)NC(=O)C(C)(C)C`, the melting point was 128 to 131 °C.

Turning to `O=[N+]([O-])c1cccc2[nH]ncc12`, the melting point fell in the range of 172 to 174 °C.

`O=C(NC(Cc1ccccc1)C(=O)O)c1ccc(-c2cnc(OCc3ccccc3)nc2)cc1` (stereo not given) registered a melting point of 184 °C.

Consider `O=C1NC(=O)C(Nc2ccc(CCNCC(O)COc3ccc(-c4ccccc4)cc3)cc2)S1` (stereo not given), for which the melting point lay within 70 to 71 °C.

`Cc1cccc(NC(=O)NC2N=C(c3ccccc3)c3ccccc3N(Cc3cc(C)ccn3)C2=O)c1` (racemic) came in with a melting point of 212 to 213 °C.

The compound `O=C(c1ccc2nonc2c1)N1CC2CC1CO2` (stereo not given) came in with a melting point of 102 to 104 °C.

`Cc1cccc(-c2[nH]c(C(C)C)nc2-c2cccc(-c3ccc(NC(=O)C(C)(C)O)cc3)c2)n1` gave a melting point of 123 to 135 °C.

`N#CCc1cccc2c(-c3ccc(F)cc3)nccc12`: the melting point was 136 °C.

Turning to `CCOC(=O)c1cccc(CSCCNC(=O)c2c(Cl)cccc2Cl)c1`, the melting point is 43 to 45 °C.

Take `CCCC12CCC(=O)C=C1c1c(cc(OCC(=O)O)c(Cl)c1Cl)CC2` (stereo not given): the melting point was in the range of 193 to 194 °C.

In turn, `CN(C)C(=O)N1CCc2ccc(S(=O)(=O)NC(=O)NC3CCCC3)cc2CC1` showed a melting point of 179 to 180 °C.

`COc1nc(C)cnc1N(C(=O)OCC(C)C)S(=O)(=O)c1cccnc1-c1ccc(C=O)cc1` displayed a melting point of 154 to 156 °C.

For `O=c1cc(NCc2ccccc2)c(-c2nc[nH]n2)nn1-c1ccccc1`, the melting point lay within 192 to 193 °C.

Take `CSCC[C@H](NC(=O)N[C@@H](CCSC)C(=O)O)C(=O)O`: the melting point is 167 to 180 °C.

Regarding `CC(=O)OC1CCC2(C)C(=CC(=O)C3C4CCC(=O)C4(C)CCC32)C1=O` (stereo not given), the melting point is 193 to 195 °C.

`CC(=O)OC1(C)C=CC2=NC(c3cc(C)c(O)c(C)c3)=CC2=C1` (stereo not given) showed a melting point of 161 to 162 °C.

As for `CCCCCc1cccc2c1NC(=O)C2=O`, the melting point was 119 to 121 °C.

`CC(=O)N(C)c1nc(C(C)(C)C)nn1-c1c(Cl)cc(Cl)cc1Cl` had a melting point of 93 to 94 °C.

The compound `O=S1(=O)N=C(NCC2CC2)Nc2ccc(C(F)(F)F)cc21` showed a melting point of 266 to 268 °C.

As for `COc1ccc(-c2c(Cl)c(CN3C(=O)CCC3=O)nc3sc4c(c23)CC(C)(C)C(=O)C4)cc1`, the melting point fell in the range of 222 to 224 °C.

Take `N=C(N)c1ccc(N2CCN(c3ccc(S(=O)(=O)CC(=O)O)cc3)C2=O)cc1`: the melting point was over 260 °C.

Compound `CCCCc1nn(-c2cc([N+](=O)[O-])ccc2Cl)c(=O)n1Cc1ccc(-c2ccccc2S(N)(=O)=O)cc1` showed a melting point of over 90 °C.

In the case of `C/C(=C\C=C\c1ccccc1)C(=O)NCCCCCC(=O)NO`, the melting point lay in the range of 158 to 160 °C.

In the case of `CON(C)C(=O)c1cc(Br)ccc1N`, the melting point fell in the range of 80 to 81 °C.

In turn, `COC(=O)Cc1ccccc1S(=O)(=O)NC(=S)Nc1nc(OC)nc(OC)n1` showed a melting point of 164 to 168 °C.

`O=C(CS(=O)(=O)c1ccc(Cl)cc1C(=O)O)c1ccccc1` showed a melting point of 170 to 171 °C.

The compound `CCCOc1ccc2c(c1)C(c1ccc(OC)cc1OCc1ccccc1)=C(C(=O)OC)[C@H]2c1ccc2c(c1)OCO2` gave a melting point of 114 to 117 °C.

For `O=C(Nc1nnc(COc2ccccc2Cl)s1)c1ccc2c(c1)CCN(C(=O)CO)C2`, the melting point lay within 133 to 135 °C.

As to `S=C1CSc2ccccc2CN1`, the melting point was 215 to 219 °C.

The compound `CCCCCCCCCCN1CC(C(=O)OC)N(S(=O)(=O)c2ccc(-c3ccc(Br)cc3)cc2)CC1=O` (stereo not given) showed a melting point of 117 to 118 °C.

In turn, `Cn1nc2ccccc2c1C(=O)NCCN1CCC(c2ccc(F)cc2)CC1` came in with a melting point of 105 to 107 °C.

As for `Cc1ccc(C)c(S(=O)(=O)Nc2onc(C)c2Cl)c1`, the melting point lay in the range of 92 to 93 °C.

Consider `O=C(O)c1ccc(OCC2COC(=O)N2c2ccc(Cl)cc2)cc1` (stereo not given), for which the melting point fell in the range of 219 to 221 °C.

Take `Nc1nc(N)c([N+](=O)[O-])c(OCc2ccccc2)n1`: the melting point lay within 194 to 195 °C.

In turn, `O=NN1CCCSc2ccccc21` gave a melting point of 85 to 86 °C.

Consider `Cc1cc(O)c(S(=O)(=O)Cc2ccc(F)cc2)c(=O)o1`, for which the melting point was 180 to 182 °C.

Turning to `O=C(c1ccccc1)N1CCN(c2ccccc2)CCN1C(=O)c1ccccc1`, the melting point was in the range of 190 to 192 °C.

In the case of `CC(C)(C)NCC(O)c1cc(Cl)c(N)c(C#N)c1` (stereo not given), the melting point was in the range of 125 to 133 °C.

With `CC(C)(C)OC(=O)NC(CCCCNC(=O)OCc1ccccc1)C(=O)N1CCCC1C(=O)NC(CCCNC(=N)N)C(=O)O` (stereo not drawn) (Boc-Lys(Cbz)-Pro-Arg-OH; configuration not given here), the melting point came to 90 °C.

For `O=C1N(c2cc(Cl)cc(Cl)c2)C(=O)C2(Cc3ccc(Br)cc3)CCC(c3ccccc3)N12` (stereo not given), the melting point was 72.4 °C.

`O=c1[nH]c(-c2ccccc2)c(F)c(=O)n1-c1ccc(OC(F)(F)F)cc1`: the melting point lay within 295 to 303 °C.

Regarding `CC(C)(C)c1nc(C(N)=S)nc(C(C)(C)C)c1O`, the melting point was 169 to 171 °C.

Regarding `CCCCn1cnc2c1c(=O)n(CCCCC(C)=O)c(=O)n2C`, the melting point lay within 79 to 80 °C.

Consider `Nc1ccc(I)cc1CO`, for which the melting point turned out to be 125 °C.

The compound `O=[N+]([O-])c1cccc(NN=C(c2ccc(Cl)cc2)c2ccc(Cl)cc2)c1` registered a melting point of 170 to 172 °C.

For `O=C(O)c1ccc(Br)cc1COc1ccc2c(c1)OCO2`, the melting point is 167 to 177 °C.

For the compound `N#Cc1ccc(/C=C/C(=O)/C=C/c2ccc(C#N)cc2)cc1`, the melting point is 137 to 138 °C.

`O=S(=O)(CS(=O)(=O)C1CCCCC1)C1CCCCC1` returned a melting point of 137 to 139 °C.

`COc1c(C)cccc1C(=N)N` showed a melting point of 72 to 74 °C.

Turning to `Cc1oc(-c2ccc(Cl)cc2)cc1C(=O)N[C@H](C)[C@](O)(Cn1cncn1)c1ccc(F)cc1F`, the melting point lay in the range of 189 to 190 °C.

As to `CC(=O)n1c(=O)sc2c(Cl)cccc21`, the melting point was determined as 74 °C.

In the case of `CNC(=O)C1=CN=C(N2CCN(C)CC2)CC1c1ccccc1C` (racemic), the melting point fell in the range of 137 to 138 °C.

`COc1cc(N2CCC(N3CCN(C)CC3)CC2)ccc1-c1nc2c(N[C@H]3[C@@H](C(N)=O)[C@@H]4C=C[C@H]3C4)c(Br)cnc2[nH]1` gave a melting point of 185 to 195 °C.

Take `CN(CC[C@H]1CC[C@H](C(=O)O)CC1)c1nccc(C(F)(F)F)n1`: the melting point was 110 to 112 °C.

With `CCC(SN(C(=O)NC(=O)c1c(F)cccc1F)c1ccc(Oc2ccc(C(F)(F)F)cc2Cl)cc1F)C(=O)NC` (stereo not given), the melting point was 136 to 138 °C.

In turn, `CCn1cc(C(=O)O)c(=O)c2c(F)c(F)c(N3CCNC(c4ccsc4)C3)c(F)c21` (stereo not given) returned a melting point of 221 to 222 °C.

Compound `COC(=O)c1cc(I)cc(Cl)c1OC` returned a melting point of 41 to 43 °C.

In turn, `COc1cc(C=CC(=O)Nc2cnc3cc(C)c(C)cc3c2-c2ccccc2Cl)cc(OC)c1O` registered a melting point of 278 to 280 °C.

As for `OC(CCl)Cn1c2ccccc2c2cc(-c3ccc4c(c3)c3ccccc3n4CC(O)CCl)ccc21` (stereo not given), the melting point was in the range of 152 to 153 °C.

With `O=c1[nH]c2cscc2c(=O)n1CCN1CCN(c2ccc(F)cc2)CC1`, the melting point is over 250 °C.

Regarding `CS(=O)(=O)c1ccc(N)c([N+](=O)[O-])c1`, the melting point fell in the range of 195 to 198 °C.

Turning to `O=C(NCC1CCOCC1)NC12CC3CC(CC(C3)C1)C2`, the melting point is 196 to 198 °C.

As for `O=C(O)Cc1ccc(NC(=O)C(COc2ccccc2)NS(=O)(=O)c2ccc(Cl)cc2)cc1` (racemic), the melting point is 190 to 192 °C.

Take `O=C1c2ccccc2C(=O)N1Cc1cc(=O)c(OC(c2ccccc2)c2ccccc2)cn1OC(c1ccccc1)c1ccccc1`: the melting point lay in the range of 145 to 147 °C.

Turning to `CCSc1ccnc(Cl)c1C#N`, the melting point was in the range of 97 to 98 °C.

In turn, `CCCCOc1c(CNC(=O)OC(C)(C)C)n(CC(C)C)c(=O)c2ccc(-c3nc(C(=O)OCC)cs3)cc12` came in with a melting point of 172 °C.

On to `CCOC(=O)c1ccc(-c2ccc(C(C)O)cc2)cc1` (single isomer, unassigned; (+)), for which the melting point came to 74.6 °C.

As for `Cc1coc2c1C(=O)CC(c1ccccc1)C2` (stereo not given), the melting point was 104 to 106 °C.

For `NS(=O)(=O)c1cccc(-c2cc(-c3nc(-c4ccc(C(F)(F)F)nc4)cc(C(F)F)n3)ccn2)c1`, the melting point turned out to be 264 °C.

As for `COc1cc2ccccc2cc1C(=O)NNC(=O)c1ccc2ccccc2c1`, the melting point is 194 to 196 °C.

With `CCCCN(Cc1ccc(-c2ccccc2-c2nnn[nH]2)cc1)c1ncncc1C(=O)OC(C)OC(=O)c1ccccc1` (stereo not given), the melting point was 79 to 88 °C.

The compound `CC12CCC(C1)C1(C)Oc3ccc(C=O)cc3C21C` (stereo not given) yielded a melting point of 145 °C.
